Where two headings read alike, the source gives them in different places.

The values below come from publication PMC3277886, “High-affinity fluorescent ligands for the 5-HT3 receptor” (Bioorganic & Medicinal Chemistry Letters, 2012).

Test [1] concerns the target T1, human 5-HT3AR (Homo sapiens, UniProt P46098).
T1 construct: expressed in transfected cells
T1 sequence (P46098 24-478): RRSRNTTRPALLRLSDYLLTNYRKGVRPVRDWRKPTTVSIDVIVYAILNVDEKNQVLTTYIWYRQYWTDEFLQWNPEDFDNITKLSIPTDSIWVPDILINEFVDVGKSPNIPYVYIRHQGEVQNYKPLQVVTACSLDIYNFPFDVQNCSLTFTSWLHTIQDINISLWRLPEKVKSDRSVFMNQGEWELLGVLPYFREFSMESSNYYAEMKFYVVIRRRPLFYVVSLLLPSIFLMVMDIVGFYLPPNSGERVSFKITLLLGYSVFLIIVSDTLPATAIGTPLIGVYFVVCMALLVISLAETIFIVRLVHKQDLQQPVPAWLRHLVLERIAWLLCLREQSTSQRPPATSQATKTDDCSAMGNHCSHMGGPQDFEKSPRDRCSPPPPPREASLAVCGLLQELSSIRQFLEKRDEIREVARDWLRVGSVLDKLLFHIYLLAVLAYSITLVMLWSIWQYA
The note with it: read-out: Ki (nM) mean ± SEM; cited from earlier work.

In test [2] the target is T1, human 5-HT3AR. As to the kind of experiment: competition binding studies with [3H]granisetron. How it is done: The photophysical properties of fluorescent granisetron derivatives were measured in MeOH and/or phosphate buffer at pH 7 (Table 1). […]. […] The binding affinities of the fluorescent granisetron probes for the human 5-HT3AR were determined by competition binding studies with [^3H]granisetron. […]. In terms of probe design it appears that optimal binding is obtained if the fluorophore is conjugated to N1 of granisetron via a short (butyl) aliphatic spacer. […]
(5) Radioligand binding and fluorescence microscopy
Materials, cell culture maintenance, receptor expression and radioligand binding for […]

Another test deals with T2, human 5-HT3A receptors (Homo sapiens, UniProt P46098).
T2 construct: myc; expressed in transfected cells; host or cells: COS-7
T2 sequence (P46098 24-478): T1 sequence (P46098 24-478)
As to the kind of experiment: live cell imaging (fluorescence microscopy) of COS-7 cells transiently transfected with human 5-HT3A receptors. The test is classed as cell-based. The note with it: 100 nM probe; for selectivity of staining: 5-HT3A-transfected versus mock transfected cells / detectable staining of cells: 1 h; for selectivity of staining: 5-HT3A-transfected versus mock transfected cells / inhibition of staining by co-incubation with ondansetron: live COS-7 cells; for selectivity of staining: 5-HT3A-transfected versus mock transfected cells: transfected vs mock transfected; for detectable staining of cells: HBS buffer, room temperature, live COS-7 cells transfected with human 5-HT3A; for inhibition of staining by co-incubation with ondansetron: co-incubation with ondansetron (OND) 10 μM. How it is done: The utility of granisetron probes 16–18, 26–28 and 36 to fluorescently label the receptor was studied using live cell imaging of COS-7 cells transiently transfected with human 5-HT3A receptors.
Figure 2 Fluorescent labeling of human 5-HT3AR in live COS-7 cells. Cells were either transfected with human 5HT3A cDNA (left and middle panels), or mock transfected (right panels). 24 h later they were incubated with 100 nM of probes 16, 18 or 28 in HBS buffer for 1 h at room temperature in the dark. The cells were imaged using a fluorescence microscope set to the appropriate absorption/emission wavelengths (Table 1). Some cells were also co-incubated with 10 μM ondansetron (OND, middle panels) to block 5-HT3 receptors. Scale bar represents 50 μm. […]
(5) Radioligand binding and fluorescence microscopy […]
For the fluorescence microscopy experiments COS-7 cells were transiently transfected with human 5-HT3A-myc cDNA (10 µg per transfection of […]) by electroporation (400 V, ∞ Ω, 125 µF), and grown on coverslips for 24 hours. Cells were washed with HBS then incubated with 100 nM of each probe (diluted in HBS) for 1 hour at room temperature in the dark. In some experiments 10 µM unlabelled ondansetron (OND) was co-incubated with the probes. Excess probe was removed by washing four times in HBS, and coverslips were placed in an imaging chamber with 1 ml HBS. Cells were then imaged using a fluorescence microscope set to the appropriate emission/excitation wavelengths. […]

The mark [3] stands for this setting: human 5-HT3AR, competition with [3H]granisetron, read-out: Ki (nM) mean ± SEM.

A word on the Ki: it is a measure of affinity in units of concentration, obtained from inhibition or displacement. As for `COc1cccc2c1c(C(=O)NC1CC3CCCC(C1)N3C)nn2C` (stereo not drawn) [Probe 2], the Ki on human 5-HT3AR [1] is 26 ± 7 nM. As to `COc1cccc2c(C(=O)NC3CC4CCCC(C3)N4C)nn(C)c12` (stereo not drawn) [Probe 5], the Ki at human 5-HT3AR [1] was 71 ± 8 nM. As for `Cc1cc(C)n2c1C=C1C=CC(CCC(=O)NCCCn3nc(C(=O)NC4CC5CCCC(C4)N5C)c4ccccc43)=[N+]1[B-]2(F)F` (stereo not drawn) [Probe 6], the Ki at human 5-HT3AR [1] was 2.8 ± 0.7 nM. As for `COc1ccc(C2=[N+]3C(=Cc4c(C)c(CCC(=O)NCCCCCC(=O)NCCCn5nc(C(=O)NC6CC7CCCC(C6)N7C)c6ccccc65)c(C)n4[B-]3(F)F)C=C2)cc1` (stereo not drawn) [Probe 14], the affinity at human 5-HT3AR [2] corresponds to a Ki of 0.9 ± 0.3 nM. In turn, `CCN(CC)c1ccc2cc(C(=O)NCCCn3nc(C(=O)NC4CC5CCCC(C4)N5C)c4ccccc43)c(=O)oc2c1` (stereo not drawn) [Probe 15] showed a Ki at human 5-HT3AR [2] of 199 ± 39 nM. Take `CN1C2CCCC1CC(NC(=O)c1nn(CCCNC(=S)Nc3ccc(-c4c5ccc(=O)cc-5oc5cc(O)ccc45)c(C(=O)O)c3)c3ccccc13)C2` (stereo not drawn) [Probe 16]: the Ki at human 5-HT3AR [2] (setting [3]) was found to be 1.6 ± 0.3 nM. At human 5-HT3A receptors, the “selectivity of staining: 5-HT3A-transfected versus mock transfected cells” value (shortened to “selectivity of staining”) was “selective staining for 5-HT3R”, the “detectable staining of cells” value was “detectable staining” and the “inhibition of staining by co-incubation with ondansetron” value (“inhibition of staining by co-incubation” for short) was “inhibited by co-incubation with the 5-HT3R antagonist ondansetron”.

For `CCN(CC)c1ccc2cc(C(=O)NCCCCn3nc(C(=O)NC4CC5CCCC(C4)N5C)c4ccccc43)c(=O)oc2c1` (stereo not drawn) [Probe 17], on human 5-HT3AR [2] (setting [3]), the inhibitory constant (Ki) was 7.3 ± 2.5 nM. In the case of `CN1C2CCCC1CC(NC(=O)c1nn(CCCCNC(=S)Nc3ccc(-c4c5ccc(=O)cc-5oc5cc(O)ccc45)c(C(=O)O)c3)c3ccccc13)C2` (stereo not drawn) [Probe 18], at human 5-HT3AR [2], the Ki was 1.1 ± 0.2 nM. For the same compound, on human 5-HT3A receptors, the “selectivity of staining” value is “selective staining for 5-HT3R”, the “detectable staining of cells” value was “detectable staining” and the “inhibition of staining by co-incubation” value was “inhibited by co-incubation with the 5-HT3R antagonist ondansetron”. Turning to `CCN(CC)c1ccc2cc(C(=O)NCCOCCOCCn3nc(C(=O)NC4CC5CCCC(C4)N5C)c4ccccc43)c(=O)oc2c1` (stereo not drawn) [Probe 20], on human 5-HT3AR [2] (setting [3]), the inhibition constant (Ki) was found to be 142 ± 5 nM. With `CN1C2CCCC1CC(NC(=O)c1nn(CCOCCOCCNC(=S)Nc3ccc(-c4c5ccc(=O)cc-5oc5cc(O)ccc45)c(C(=O)O)c3)c3ccccc13)C2` (stereo not drawn) [Probe 21], on human 5-HT3AR [2] (setting [3]), the Ki was found to be 6300 nM. With `CCN(CC)c1ccc2c(-c3ccc(NC(=S)NCCOCCOCCn4nc(C(=O)NC5CC6CCCC(C5)N6C)c5ccccc54)cc3C(=O)[O-])c3ccc(=[N+](CC)CC)cc-3oc2c1` (stereo not drawn) [Probe 22], the Ki on human 5-HT3AR [2] (setting [3]) worked out at 384 ± 68 nM.

For `CN1C2CCCC1CC(NC(=O)c1nn(CCCNc3ccc([N+](=O)[O-])c4nonc34)c3ccccc13)C2` (stereo not drawn) [Probe 26], the inhibition constant (Ki) on human 5-HT3AR [2] (setting [3]) turned out to be 8.7 ± 5.8 nM. Same read-out and setting: to `CN(C)c1cccc2c(S(=O)(=O)NCCCn3nc(C(=O)N[C@H]4C[C@H]5CCC[C@@H](C4)N5C)c4ccccc43)cccc12` [Probe 27] belongs 1.2 ± 0.6 nM. `CC1=CC(C)=[N+]2C1=C(CCCOC(=O)CCCn1nc(C(=O)NC3CC4CCCC(C3)N4C)c3ccccc31)c1c(C)cc(C)n1[B-]2(F)F` (stereo not drawn) [Probe 28]: the Ki on human 5-HT3AR [2] (setting [3]) was determined as 1.6 ± 0.8 nM. For the same compound, on human 5-HT3A receptors, the “selectivity of staining” value is “intense fluorescence in both 5-HT3A- and mock-transfected cells”; the “detectable staining of cells” value was “detectable staining”; the “inhibition of staining by co-incubation” value is “not blocked by ondansetron”. `CCN(CC)c1ccc2cc(C(=O)NCCOc3cccc4c(C(=O)NC5CC6CCCC(C5)N6C)nn(C)c34)c(=O)oc2c1` (stereo not drawn) [Probe 36]: the Ki at human 5-HT3AR [2] was 1.9 ± 0.9 nM.

`CCN(CC)c1ccc2cc(C(=O)NCCCOc3cccc4c(C(=O)N[C@H]5C[C@H]6CCC[C@@H](C5)N6C)nn(C)c34)c(=O)oc2c1` [Probe 37] came in with a Ki at human 5-HT3AR [2] of 157 ± 9 nM. As to `CCN(CC)c1ccc2cc(C(=O)NCCOCCOCCOc3cccc4c(C(=O)N[C@@H]5C[C@H]6CCC[C@@H](C5)N6C)nn(C)c34)c(=O)oc2c1` [Probe 38], the Ki at human 5-HT3AR [2] (setting [3]) amounted to 1300 nM. `CN1[C@@H]2CCC[C@H]1C[C@@H](NC(=O)c1nn(C)c3c(OCCOCCOCCNC(=S)Nc4ccc(-c5c6ccc(=O)cc-6oc6cc(O)ccc56)c(C(=O)O)c4)cccc13)C2` [Probe 39] displayed a Ki on human 5-HT3AR [2] of 208 ± 55 nM.
